The values below come from publication PMC8151276, “An Integrated Approach toward NanoBRET Tracers for Analysis of GPCR Ligand Engagement” (Molecules, 2021).

For assay [1], the target named is T1, P2RY4 (Homo sapiens, UniProt P51582).
T1 construct: purchased Promega (in-house HiBiT-GPCR construct library, NanoBRET)
Kind of assay: NanoBRET screen HiBiT-P2RY4 in HEK293. The format is binding. The protocol:
(§1) Each tracer candidate was screened across the entire library of HiBiT-GPCR constructs using NanoBRET as the detection modality. As depicted in Figure 4A, the specificity of interactions was evaluated through decrease in BRET due to competitive displacement of a bound tracer by excess parental compound. Each tracer was analyzed for binding to each HiBiT-GPCR fusion in the absence and in the presence of competing parental compound. Briefly, HEK293 cells were transfected with HiBiT-GPCR constructs diluted into promoterless DNA to reduce expression and maximize translocation to the cell surface. Each tracer candidate was then screened at concentrations of 1 μM and 0.1 μM across cells expressing these fusions. Cells were treated for 1.5 h with tracer either alone or in the presence of 20 μM competing parental compound (i.e., control). BRET was measured upon addition of purified LgBiT and subsequent complementation with HiBiT genetically fused to a GPCR. The specificity of interactions was assessed through a decrease in BRET signal due to competitive displacement of the bound tracer. To further gauge the robustness of these interactions, the fold response over the control (i.e., BRETtracer/BRETcontrol) was calculated. We chose a 1.5-fold response, which translates to ≥7-fold signal over noise as the minimal threshold required to score an interaction as positive. […]. Below we highlight the screening results obtained for our exemplary fluorescent tracers based on Clozapine, Amitriptyline and AZD1283.
(§2) HiBiT-GPCR DNA constructs were diluted in 10 mM Tris pH 8 to a final concentration of 0.01 μg/μL, arrayed in 96-well plates and stored at −20 °C. For transfection, HEK293 cells were suspended in Opti-MEM (without phenol red) supplemented with 2% fetal bovine serum (Seradigm) and 100 units/mL penicillin–streptomycin (Gibco) at a final concentration of 220,000 cells/mL and dispensed into white 96-well plates at 90 μL/well. Subsequent transfections and screens were carried using an Agilent Bravo Automated Liquid Handling Platform. First, the 96-well HiBiT DNA arrays were diluted 25-fold in Opti-MEM (without serum or phenol red) to a final concentration of 0.0004 μg/μL and 20 μL of the diluted DNAs were transferred into new 96-well plates. Next, promoterless carrier DNA (1 μg/μL) was diluted 25-fold (0.04 μg/μL) and then dispensed into the diluted arrays at 20 μL/well. Following brief mixing, Viafect transfection reagent (Promega) diluted 16-fold into Opti-MEM was dispensed into the plates at 40 μL/well. After mixing by pipetting, plates were incubated for 10 min on the pipetting station deck. The DNA-transfection reagent complexes were then added to plates containing cells. To facilitate the screen, 10 μL of DNA-transfection reagent complexes were added in duplicates to the top 4 and bottom 4 rows, resulting in two identical 48-well arrays per plate. Plates with transfected cells were incubated for 18–20 h at 37 °C/5% CO2. A screen of each tracer across the entire library using two different concentrations requires duplicate plates of transfected cells. Depending on the number of tracers being screened, transfections can be scaled up using the same ratios. The next day, for each tracer, four 20× screening solutions in tracer dilution buffer (Promega) were prepared: two duplicates at final concentration of 20 μM and two duplicates at a final concentration of 2 μM. A competing unmodified compound was added to one of each duplicate at a final concentration of 400 μM. The four resulting solutions were diluted 4-fold in Opti-MEM without serum or phenol red to generate 5× solutions (5 µM and 0.5 µM tracer +/− 100 μM competing compound). To screen the library, a BioTek MultiFlo FX liquid dispenser was used to dispense 22.5 µL of tracer solution to the top 4 rows and 22.5 µL tracer + competing compound solution to the 4 bottom rows. Plates were briefly mixed on an orbital shaker and incubated for 1.5 h at room temperature. […]
(In general: Bioluminescence resonance energy transfer reports proximity on the nanometre scale.)

Assay [2] addresses T2, CYSLTR2 (Homo sapiens, UniProt Q9NS75).
T2 construct: purchased Promega (in-house HiBiT-GPCR construct library, NanoBRET)
T2 sequence (Q9NS75 1-346): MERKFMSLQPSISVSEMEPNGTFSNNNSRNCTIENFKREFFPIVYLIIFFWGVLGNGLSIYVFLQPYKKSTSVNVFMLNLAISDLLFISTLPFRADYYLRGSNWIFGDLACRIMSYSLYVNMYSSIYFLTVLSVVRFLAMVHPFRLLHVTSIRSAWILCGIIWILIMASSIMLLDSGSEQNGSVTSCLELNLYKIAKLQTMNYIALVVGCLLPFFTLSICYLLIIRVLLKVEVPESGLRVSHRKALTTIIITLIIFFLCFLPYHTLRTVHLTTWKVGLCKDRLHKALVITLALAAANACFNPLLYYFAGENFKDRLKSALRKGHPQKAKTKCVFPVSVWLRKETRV
Kind of assay: NanoBRET screen HiBiT-CYSLTR2 in HEK293. The format is binding. On the procedure:
as §1, §2

T1 sequence (P51582 whole entry): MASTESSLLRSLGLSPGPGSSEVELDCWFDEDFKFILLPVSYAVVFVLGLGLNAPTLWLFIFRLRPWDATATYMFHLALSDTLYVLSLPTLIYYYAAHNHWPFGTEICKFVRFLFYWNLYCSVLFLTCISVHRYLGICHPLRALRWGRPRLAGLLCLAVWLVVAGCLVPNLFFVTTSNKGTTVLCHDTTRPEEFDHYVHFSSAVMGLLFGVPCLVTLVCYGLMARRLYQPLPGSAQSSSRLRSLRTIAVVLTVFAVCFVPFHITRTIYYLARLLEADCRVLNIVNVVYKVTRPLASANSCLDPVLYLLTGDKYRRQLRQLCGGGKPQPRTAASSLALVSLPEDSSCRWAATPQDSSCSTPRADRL

As for `O=C(CCOCCOCCOCCOCCNC(=O)CCc1ccc2n1[B-](F)(F)[N+]1=C(c3ccc[nH]3)C=CC1=C2)NCCCN1CCN(C2=Nc3ccccc3Oc3ccc(Cl)cc32)CC1` [Loxapine-a-2-NB590], the “NanoBRET Fold Response” value in assay [1] (P2RY4, tracer 0.1μM) amounted to 0.95; in assay [1] (P2RY4, tracer 1μM) it was 1.28; in assay [2] (CYSLTR2, tracer 0.1μM), 0.91; in assay [2] (CYSLTR2, tracer 1μM), 1.02.

For `CCCn1c(=O)c2[nH]c(-c3ccc(OCC(=O)NCCNC(=O)CCOCCNC(=O)c4ccc(CNC(=O)CCc5ccc6n5[B-](F)(F)[N+]5=C(c7ccc[nH]7)C=CC5=C6)cc4)cc3)nc2n(CCC)c1=O` [XAC-3-NB590], the “NanoBRET Fold Response” value amounted to 1.07 in assay [1] (P2RY4, tracer 0.1μM); 0.79 in assay [1] (P2RY4, tracer 1μM); 1.08 in assay [2] (CYSLTR2, tracer 0.1μM); 1.01 in assay [2] (CYSLTR2, tracer 1μM).

`CN(C)CCC=C1c2ccccc2CCc2ccc(C(=O)NCCNC(=O)CCOCCOCCOCCOCCNC(=O)CCc3ccc4n3[B-](F)(F)[N+]3=C(c5ccc[nH]5)C=CC3=C4)cc21` [Amitriptyline-a-2-NB590]: the entries for the “NanoBRET Fold Response” value in assay [1] (tracer at 0.1μM) and in assay [1] (tracer at 1μM) were 1.01 and 1.02, respectively.

With `COc1ccccc1N1CCN(CCCCN2C(=O)c3ccc(CNC(=O)CCOCCOCCOCCOCCNC(=O)CCc4ccc5n4[B-](F)(F)[N+]4=C(c6ccc[nH]6)C=CC4=C5)cc3C2=O)CC1` [NAN-190-2-NB590], the “NanoBRET Fold Response” value in assay [1] (P2RY4, tracer 1μM) is on record as 1.18.

Turning to `O=C(CCc1ccc2n1[B-](F)(F)[N+]1=C(c3ccc[nH]3)C=CC1=C2)NCc1ccc(C(=O)NCCOCCOCCNCC(O)COc2cccc3ccccc23)cc1` (stereo not drawn) [Propranolol-3-NB590], the “NanoBRET Fold Response” value in assay [1] (P2RY4, 0.1μM) is listed as 1.03; in assay [1] (P2RY4, 1μM) it was 0.92; in assay [2] (CYSLTR2, 0.1μM) it was 0.54; in assay [2] (CYSLTR2, 1μM) it was 1.01.

`COc1ccccc1N1CCN(CCCCN2C(=O)c3ccc(CNC(=O)CCOCCNC(=O)c4ccc(CNC(=O)CCc5ccc6n5[B-](F)(F)[N+]5=C(c7ccc[nH]7)C=CC5=C6)cc4)cc3C2=O)CC1` [NAN-190-3-NB590]: the “NanoBRET Fold Response” value is on record as 0.86 in assay [1] (P2RY4, tracer 0.1μM); 0.82 in assay [1] (P2RY4, tracer 1μM); 1.11 in assay [2] (CYSLTR2, tracer 0.1μM); 1.31 in assay [2] (CYSLTR2, tracer 1μM).

Take `O=C(CCc1ccc2n1[B-](F)(F)[N+]1=C(c3ccc[nH]3)C=CC1=C2)NCc1ccc(C(=O)NCCOCCC(=O)N[C@@H]2CC[C@@]3(O)[C@H]4Cc5ccc(O)c6c5[C@@]3(CCN4CC3CC3)[C@H]2O6)cc1` [Naltrexone-3-NB590]: the “NanoBRET Fold Response” value worked out at 1.32 in assay [1] (P2RY4, tracer 0.1μM); 0.88 in assay [1] (P2RY4, tracer 1μM); 1.05 in assay [2] (CYSLTR2, tracer 0.1μM); 0.98 in assay [2] (CYSLTR2, tracer 1μM).

Take `CCOC(=O)c1cc(C#N)c(N2CCC(C(=O)NS(=O)(=O)Cc3ccccc3/C=C/C(=O)NCCNC(=O)CCc3ccc4n3[B-](F)(F)[N+]3=C(c5ccc[nH]5)C=CC3=C4)CC2)nc1C` [AZD1283-1-NB590]: the “NanoBRET Fold Response” value in assay [1] (P2RY4, 0.1μM) is listed as 1.05; in assay [1] (P2RY4, 1μM) it was 1.12; in assay [2] (CYSLTR2, 0.1μM) it was 1.07; in assay [2] (CYSLTR2, 1μM), 0.97.

For the compound `COc1ccc2[nH]c(-c3ccc(CNC(=O)CCOCCOCCOCCOCCNC(=O)CCc4ccc5n4[B-](F)(F)[N+]4=C(c6ccc[nH]6)C=CC4=C5)cc3)c(CCNC(C)=O)c2n1` [AzomelatoninICO9-2-NB590], the “NanoBRET Fold Response” value amounted to 1.03 in assay [1] (0.1μM tracer), 1.13 in assay [1] (1μM tracer), 1.03 in assay [2] (0.1μM tracer) and 1.06 in assay [2] (1μM tracer).

Regarding `CC(C)N(CC[C@H](c1ccccc1)c1cc(CCNC(=O)CCOCCOCCOCCOCCNC(=O)CCc2ccc3n2[B-](F)(F)[N+]2=C(c4ccc[nH]4)C=CC2=C3)ccc1O)C(C)C` [Tolterodine-2-NB590], the “NanoBRET Fold Response” value in assay [1] (P2RY4, tracer 0.1μM) was 1.08; in assay [1] (P2RY4, tracer 1μM), 0.94; in assay [2] (CYSLTR2, tracer 0.1μM) it was 0.93; in assay [2] (CYSLTR2, tracer 1μM), 1.00.

In the case of `CN1CCN(C2=Nc3cc(Cl)ccc3N(CC(=O)NCCOCCOCCOCCOCCNC(=O)CCc3ccc4n3[B-](F)(F)[N+]3=C(c5ccc[nH]5)C=CC3=C4)c3ccccc32)CC1` [Clozapine-c-2-NB590], the “NanoBRET Fold Response” value was determined as 1.00 in assay [1] (P2RY4, 0.1μM tracer); 0.95 in assay [1] (P2RY4, 1μM tracer); 1.04 in assay [2] (CYSLTR2, 0.1μM tracer); 1.07 in assay [2] (CYSLTR2, 1μM tracer).

Regarding `N#CN=C(NCCCOc1cccc(CN2CCCCC2)c1)NCCNC(=O)CCOCCOCCOCCOCCNC(=O)CCc1ccc2n1[B-](F)(F)[N+]1=C(c3ccc[nH]3)C=CC1=C2` [Aminopotentidine-2-NB590], the “NanoBRET Fold Response” value stood at 1.09 in assay [1] (P2RY4, tracer 0.1μM); 1.07 in assay [1] (P2RY4, tracer 1μM); 1.05 in assay [2] (CYSLTR2, tracer 0.1μM); 0.98 in assay [2] (CYSLTR2, tracer 1μM).

Take `COc1ccc2c(n1)c(CCNC(C)=O)cn2CCNC(=O)CCc1ccc2n1[B-](F)(F)[N+]1=C(c3ccc[nH]3)C=CC1=C2` [Azamelatonin-1-NB590]: the “NanoBRET Fold Response” value in assay [1] (0.1μM tracer) came to 1.10; in assay [1] (1μM tracer), 1.10; in assay [2] (0.1μM tracer), 1.37; in assay [2] (1μM tracer), 0.46.

`CN(CCC=C1c2ccccc2CCc2ccccc21)C(=O)CCOCCOCCOCCOCCNC(=O)CCc1ccc2n1[B-](F)(F)[N+]1=C(c3ccc[nH]3)C=CC1=C2` [Amitriptyline-e-2-NB590]: in assay [1] (tracer at 1μM), the “NanoBRET Fold Response” value was 1.04.

Take `CC(C)N(CC[C@H](c1ccccc1)c1cc(CCNC(=O)c2ccc(CNC(=O)CCc3ccc4n3[B-](F)(F)[N+]3=C(c5ccc[nH]5)C=CC3=C4)cc2)ccc1O)C(C)C` [Tolterodine-BZ-NB590]: the “NanoBRET Fold Response” value stood at 0.97 in assay [1] (P2RY4, tracer 0.1μM); 1.08 in assay [1] (P2RY4, tracer 1μM); 1.00 in assay [2] (CYSLTR2, tracer 0.1μM); 1.08 in assay [2] (CYSLTR2, tracer 1μM).

As for `O=C(CCc1ccc2n1[B-](F)(F)[N+]1=C(c3ccc[nH]3)C=CC1=C2)NCCOCCOCCNC(=O)OCCOCCN1CCN(C2=Nc3ccccc3Sc3ccccc32)CC1` [Quetiapine-a-2-NB590], the “NanoBRET Fold Response” value in assay [1] (P2RY4, tracer 0.1μM) worked out at 1.05; in assay [1] (P2RY4, tracer 1μM), 0.84; in assay [2] (CYSLTR2, tracer 0.1μM), 0.88; in assay [2] (CYSLTR2, tracer 1μM), 0.85.

Regarding `Cc1cc2c(s1)Nc1ccccc1N=C2N1CCN(CCCNC(=O)CCOCCOCCOCCOCCNC(=O)CCc2ccc3n2[B-](F)(F)[N+]2=C(c4ccc[nH]4)C=CC2=C3)CC1` [Olanzapine-a-2-NB590], the “NanoBRET Fold Response” value in assay [1] (P2RY4, tracer 0.1μM) is reported as 1.07; in assay [1] (P2RY4, tracer 1μM), 0.95; in assay [2] (CYSLTR2, tracer 0.1μM), 0.95; in assay [2] (CYSLTR2, tracer 1μM), 0.99.

As to `CN(C)CCC=C1c2ccccc2CCc2ccc(C(=O)NCCNC(=O)CCOCCOCCOCCOCCNC(=O)CCc3ccc4n3[B-](F)(F)[N+]3=C(c5ccc[nH]5)C=CC3=C4)cc21` [Amitriptyline-b-2-NB590], the “NanoBRET Fold Response” value in assay [1] (tracer at 0.1μM, listed as amitriptyline-b-2-NB590) was 1.07; in assay [2] (CYSLTR2, tracer 0.1μM), 0.95; in assay [2] (CYSLTR2, tracer 1μM), 1.04.
